Literature values, collected in US20170172145A1, “COMPOSITIONS COMPRISING AN AMIDE” (The Procter & Gamble Company, priority 2015, published 2017).

SMILES	pKa
CCCCCCC(=O)O [heptanoic acid]	5.1
OCl [hypochlorous acid]	7.0
CCCCCCCCC(=O)O [nonanoic acid]	5.2
O=C(O)/C=C/c1ccc(O)cc1 [p-coumaric acid]	4.6
